Experiment: Inhibition of human serum factor D-mediated complement activation in rabbit erythrocytes assessed as reduction in rabbit erythrocyte hemolysis preincubated with human serum for 15 mins followed by addition of rabbit erythrocytes and Mg-EGTA measured after 30 mins

Row | SMILES | IC50
1 | NC(=O)c1nn(CC(=O)N2CCS[C@H]2C(=O)Nc2cccc(Br)n2)c2ncccc12 | 0.205 µM
2 | NC(=O)c1nn(CC(=O)N2[C@@H]3C[C@@H]3C[C@H]2C(=O)Nc2cccc(Br)n2)c2ncccc12 | 0.047 µM

— BindingDB's records for doi:10.1021/acsmedchemlett.6b00299 (University of Michigan, 2016)
